Results as given in patent US20150050368A1, “METHOD FOR PRODUCING A PLANT EXTRACT FROM DESMODIUM AND ITS EXTRACT THEREOF” (priority 2012, published 2015).

Key:
[1] = system: OVA-induced asthma; details: mouse, in vivo; cited from earlier work
[2] = system: L6 rat muscle cells; details: cited from earlier work
[3] = system: older, non-diabetic patients; details: intake for 6 weeks; cited from earlier work
[4] = system: LPS-induced dendritic bone marrow cells; details: cited from earlier work
[5] = system: neutrophils; details: cited from earlier work
[6] = system: streptozotocin-induced diabetic mice; details: mouse, in vivo; cited from earlier work
[7] = system: severely insulin-resistant mice; details: mouse, in vivo; cited from earlier work
[8] = system: carrageenan-induced oedema of the paw; cotton pellet granuloma; details: cited from earlier work
[9] = system: ethanol-induced liver injury; test: protective effect against ethanol-induced liver injury in rats; assay type: in vivo, male Wistar rats
Description: The purpose of the experiment is to evaluate the hepatoprotective effects of decoct of Desmodium adscendens against ethanol-induced liver injury, standardized to its primary ingredient: D-pinitol. Materials and Methods: 66 male Wistar rats of 200-225 g (Charles River, Brussels, Belgium) were randomly divided into 6 groups: the negative control group (CON: no hepatotoxic agent, no treatment: 8 rats), the hepatotoxic group (HEP: induction of hepatotoxicity, no treatment: 20 rats), the Desmodium I group (induction of hepatotoxicity, treatment with Desmodium adscendens decoct, equivalent to 2 mg/kg of D-pinitol: 10 rats), the group II Desmodium (induction of hepatotoxicity, treatment with Desmodium adscendens decoct, equivalent to 10 mg/kg of D-pinitol: 10 rats), the D-pinitol group (PIN: induction of hepatotoxicity, treatment with 10 mg/kg of D-pinitol: 10 rats), the positive control group (SIL: induction of hepatotoxicity, treatment with 20 mg/kg of silymarin: 8 rats). 2 days prior to ethanol administration, an appropriate amount of lyophilized decoct, pinitol silymarin or suspended in water and administered by gavage (or vehicle for the control group). Hepatotoxicity was induced by daily oral gavage with a 55% ethanol solution (except for the negative control group). […] Ethanol was administered for a period of 7 weeks. Was administered daily, depending on the group, treated with the specific decoct, pinitol or silymarin (oral gavage) to the end of the experiment. For ethanol administration (default values), and at weeks 3, 4, 5 and 6, blood samples (1.5 ml) were taken from the lateral tail vein (Multi Fat 600, Sarstedt). This experiment was approved by the Ethics Committee for Animal Experiments of the University of Antwerpen (17-01-2011, 2010-37).
A schematic overview of the different treatment groups is given below next. Concentrations of enzyme aspartate transaminase (AST, GOT) and alanine transaminase (ALT, GPT) were in the serum samples from the test animals as determined by routine laboratory techniques (Senior, 2009). Elevated levels can be considered as an indication of liver cell destruction or a change in membrane permeability.
Statistics to analyze the difference between CON and HEP for AST and ALT, and between HEP and DES 1, DES 2, PIN and SIL for AST and ALT, was a mixed model analyze performed. The log-rank test was performed for statistical analysis of survival data.

[10] = in vivo; cited from earlier work
[11] = system: patients with type 2 diabetes; details: cited from earlier work
[12] = system: foam cells; details: cited from earlier work
[13] = system: streptozotocin-induced diabetic rats; details: rat, in vivo; cited from earlier work
[14] = system: liver injury induced by galactosamine; test: preventive effect of Desmodium adscendens decoction against galactosamine-induced liver injury in rats; assay type: in vivo, Sprague Dawley rats; details: 48 h after D-galactosamine 650 mg/kg IP; oral gavage; Desmodium equivalent to 20 or 5 mg/kg D-pinitol, D-pinitol 20 mg/kg, silymarin 20 mg/kg
Description: As far as the in vivo evaluation of the hepato-protective effect of Desmodium adscendens decoction is concerned, D-pinitol has a hepato-protective effect. One of the constituents of Desmodium adscendens is D-pinitol. […] In this in vivo experiment the preventive effect of a decoction of Desmodium adscendens against liver injury induced by galactosamine was investigated in rats. Silymarin was used as the reference agent. Silymarin is a mixture of various flavanolignans from the fruits of the milk thistle plant, Silybum marianum. The principal components are silybin, […]. In addition, small quantities of isosilybin are present in milk thistle. […] The liver injury and the possible hepato-protective effect were evaluated by determining the following parameters in serum: ALT (=GPT), AST (=GOT), ALP. […] After administration of the hepatotoxic agent D-galactosamine, both after 24 h and after 48 h, liver injury was observed through a marked increase in the three parameters determined (control vs. hepatotox).

[15] = system: insulin-resistant patients; details: 20 mg/kg/day for 4 weeks; cited from earlier work
[16] = system: liver injury with galactosamine; details: after induction of liver injury with galactosamine; cited from earlier work
[17] = system: 3T3-L1 adipocytes; details: cited from earlier work
[18] = after 4 weeks of ethanol, daily oral gavage, DES1 eq. 2, DES2 eq. 10 mg/kg D-pinitol, PIN 10 mg/kg, SIL 20 mg/kg
[19] = after 5 weeks of ethanol, daily oral gavage, DES1 eq. 2, DES2 eq. 10 mg/kg D-pinitol, PIN 10 mg/kg, SIL 20 mg/kg
[20] = after 6 weeks of ethanol, daily oral gavage, DES1 eq. 2, DES2 eq. 10 mg/kg D-pinitol, PIN 10 mg/kg, SIL 20 mg/kg
[21] = 13 weeks of treatment with 2×60 mg per day

CO[C@H]1[C@H](O)[C@@H](O)[C@@H](O)[C@H](O)[C@@H]1O [D-pinitol, 3-O-methyl-chiro-inositol]
hyperreactivity and inflammation observed in asthma [1]: reduces
number of inflammatory cells in bronchoalveolar lavage fluid [1]: decreases
basal uptake of 2-deoxyglucose ([2]; L6 muscle cells): increases the basal uptake of 2-deoxyglucose
translocation of GLUT4 to the cell membrane ([2]; L6 rat muscle cells): induces the translocation of GLUT4 to the cell membrane
insulin-mediated glucose metabolism [3]: no effect
production of IL-12 and pro-inflammatory cytokines ([4]; LPS-induced): reduces the production
expression of MHC-I, MHC-II, CD80 and CD86 ([4]; in vitro and in vivo): decreases the expression
TNF-alpha expression [5]: inhibits TNF-alpha expression
hypoglycaemic effect [6]: acute and chronic hypoglycaemic effect
efficacy [7]: not effective
effect against acute inflammation ([8]; carrageenan-induced oedema of the paw): anti-inflammatory properties
effect against subacute inflammation ([8]; cotton pellet granuloma): anti-inflammatory properties
survival of test animals ([9]; W0, DES1 eq. 2, DES2 eq. 10 mg/kg D-pinitol, PIN 10 mg/kg, SIL 20 mg/kg): 100%
survival of test animals ([9]; W1 of ethanol, DES1 eq. 2, DES2 eq. 10 mg/kg D-pinitol, PIN 10 mg/kg, SIL 20 mg/kg): 100%
survival of test animals ([9]; W2 of ethanol, DES1 eq. 2, DES2 eq. 10 mg/kg D-pinitol, PIN 10 mg/kg, SIL 20 mg/kg): 70%
survival of test animals ([9]; W3 of ethanol, DES1 eq. 2, DES2 eq. 10 mg/kg D-pinitol, PIN 10 mg/kg, SIL 20 mg/kg): 60%
survival of test animals ([9]; W4 of ethanol, DES1 eq. 2, DES2 eq. 10 mg/kg D-pinitol, PIN 10 mg/kg, SIL 20 mg/kg): 60%
survival of test animals ([9]; W5 of ethanol, DES1 eq. 2, DES2 eq. 10 mg/kg D-pinitol, PIN 10 mg/kg, SIL 20 mg/kg): 50%
survival of test animals ([9]; W6 of ethanol, DES1 eq. 2, DES2 eq. 10 mg/kg D-pinitol, PIN 10 mg/kg, SIL 20 mg/kg): 40%
survival of test animals ([9]; W6 of ethanol, DES1 eq. 2, DES2 eq. 10 mg/kg D-pinitol, PIN 10 mg/kg, SIL 20 mg/kg, listed as PIN): 40%
Serum ALT ALT_4 Average [9, 18]: 75.9
Serum AST AST_4 Average [9, 18]: 89.3 U/I
Serum ALT ALT_5 Mean [9, 19]: 61.6
Serum AST AST_5 Average [9, 19]: 78.3 U/I
Serum ALT ALT_6 Mean [9, 20]: 65.6
Serum AST AST_6 Mean [9, 20]: 86.3 U/I
statistical difference in survival vs the hepatotoxic group ([9]; log-rank test, 6 weeks, DES 1 eq. 2, DES 2 eq. 10 mg/kg pinitol, pinitol 10 mg/kg, silymarin 20 mg/kg): No statistically significant difference
metabolism in humans [10]: metabolised partly to D-chiro-inositol
HDL cholesterol values [11, 21]: increased
total cholesterol, LDL/HDL ratio and systolic and diastolic blood pressures [11, 21]: decreased
fasting glucose values, HbA1c values and insulin ([11]; human, in vivo): favourable effect
fasting and postprandial glucose values and HbA1c values ([11]; uncontrolled type 2 diabetes, 12 weeks, 20 mg/kg/day, in addition to the usual therapy): improves
levels of adiponectin, leptin, C-reactive protein (CRP) and free fatty acids ([11]; uncontrolled type 2 diabetes, 12 weeks, 20 mg/kg/day): does not significantly change
formation of foam cells [12]: moderately decreases
AST, ALT and alkaline phosphatase values in the liver [13]: normalises
blood glucose, haemoglobin and insulin [13]: lowers blood glucose haemoglobin and increases insulin
effect on lipids [13]: lipid-lowering effect
ALT (GPT) in serum compared with the hepatotoxic group [14]: decreased significantly
AST (GOT) in serum compared with the hepatotoxic group [14]: decreased significantly
basal and insulin-mediated glucose or lipid metabolism [15]: no effect
AST and ALT liver values and TNF-α values [16]: normalises
lipid peroxidation [16]: reduces lipid peroxidation
expression of adiponectin mRNA ([17]; 1 mM): increases expression of adiponectin mRNA
mRNA expression of GLUT4, IRS, PPARγ and C/EBP ([17]; 0.5 and 1 mM): increases the mRNA expression
